Where two headings read alike, the source gives them in different places.
Experiments:
Assay type in all cases: cell-based
S. haemolyticus (CoNS) = assay: Broth microdilution MIC, S. haemolyticus (CoNS) (Table 7); details: S. haemolyticus (CoNS) MMX 529 ATCC 29970
Streptococci = assay: Broth microdilution MIC, Streptococci (Example 11, Table 7)
S. epidermidis (CoNS) = assay: Broth microdilution MIC, S. epidermidis (CoNS) (Table 7)
C. perfringens = system: C. perfringens
S. hominis (CoNS) = assay: Broth microdilution MIC, S. hominis (CoNS) (Table 7); details: S. hominis (CoNS) MMX 667 ATCC 27844
S. lugdenensis (CoNS) = assay: Broth microdilution MIC, S. lugdenensis (CoNS) (Table 7); details: S. lugdenensis (CoNS) MMX 8724
P. anaerobius = assay: Broth microdilution MIC, P. anaerobius (Table 7); details: P. anaerobius MMX 1208 ATCC 27337
P. micros = assay: Broth microdilution MIC, P. micros (Table 7); details: P. micros MMX 3546
Enterococci = system: Enterococci
P. acnes = assay: Broth microdilution MIC, P. acnes (Table 7)
Staphylococcus aureus = assay: microbe, parasite or virus in culture; details: for MIC: Staphylococcus aureus, read-out: MIC
Clostridium difficile = assay: Broth microdilution MIC, C. difficile, anaerobic, supplemented Brucella Broth (Example 11, Table 7); details: C. difficile MMX 4381 ATCC 700057, toxinAB-negative
[1] = S. anginosus (AGS) MMX 1201 ATCC 33397
[2] = S. pneumoniae MMX 1195 ATCC 49619, PISP
[3] = S. epidermidis (CoNS) MMX 762, MRSE
[4] = S. epidermidis (CoNS) MMX 5145, MRSE
[5] = E. faecalis MMX 101 ATCC 29212, VSE
[6] = ATCC 29213 / MSSA, S. aureus MMX 100 ATCC 29213, MSSA (quality control)
[7] = ATCC 33591 / MRSA, S. aureus MMX 5717 ATCC 33591, MRSA
[8] = ATCC BAA-1556 / MRSA, S. aureus MMX 4675 ATCC BAA-1556, MRSA
[9] = ATCC BAA-1756 / MRSA, S. aureus MMX 2011 ATCC BAA-1756, MRSA
[10] = VISA, S. aureus MMX 1723, Mu50, VISA
[11] = VISA, S. aureus MMX 2124, VISA, DaptoNS

CN[C@H](CC(C)C)C(=O)N[C@H]1C(=O)N[C@@H](CC(N)=O)C(=O)N[C@H]2C(=O)N[C@H]3C(=O)N[C@H](C(=O)N[C@H](C(=O)O)c4cc(O)cc(O)c4-c4cc3ccc4O)[C@H](O[C@H]3C[C@](C)(N)[C@@H](O)[C@H](C)O3)c3ccc(c(Cl)c3)Oc3cc2cc(c3O[C@@H]2O[C@H](CO)[C@@H](O)[C@H](O)[C@H]2O[C@H]2C[C@](C)(NCc3ccc(-c4ccc(Cl)cc4)cc3)[C@@H](O)[C@H](C)O2)Oc2ccc(cc2Cl)[C@H]1O [Oritavancin]
≤ 0.008 µg/mL: MIC (Streptococci; S. constellatus (AGS) MMX 5677) | MIC (Streptococci; S. oralis (MGS) MMX 5821) | MIC (Streptococci; S. pneumoniae MMX 432, PRSP) | MIC (Streptococci; S. pneumoniae MMX 747) | MIC (Streptococci; [2]) | MIC (S. lugdenensis (CoNS)) | MIC (Enterococci; [5]) | MIC (Enterococci; E. faecium MMX 173, VanB VRE) | MIC (P. acnes; P. acnes MMX 7942 ATCC 6919) | MIC (P. acnes; P. acnes MMX 7946 ATCC 11827)
0.5 µg/mL: MIC (Streptococci; [1]) | MIC (Staphylococcus aureus; MRSA, S. aureus MMX 7901, MRSA) | MIC (Staphylococcus aureus; MRSA, S. aureus MMX 7902, MRSA) | MIC (Staphylococcus aureus; S. aureus MMX 4665, hVISA)
0.12 µg/mL: MIC (S. haemolyticus (CoNS)) | MIC (Streptococci; S. agalactiae MMX 4088) | MIC (S. epidermidis (CoNS); [4]) | MIC (Enterococci; E. faecium MMX 851, VanA VRE) | MIC (Staphylococcus aureus; [7]) | MIC (Staphylococcus aureus; MRSA, S. aureus MMX 3982, MRSA) | MIC (Staphylococcus aureus; MRSA, S. aureus MMX 5999, MRSA) | MIC (Staphylococcus aureus; MRSA, S. aureus MMX 7899, MRSA) | MIC (Staphylococcus aureus; MRSA, S. aureus MMX 7900, MRSA) | MIC (Staphylococcus aureus; S. aureus MMX 5989, Mu3, hVISA)
1 µg/mL: MIC (Streptococci; S. agalactiae MMX 427 ATCC 13813) | MIC (Streptococci; S. dysgalactiae MMX 5124) | MIC (Streptococci; S. pyogenes MMX 8778) | MIC (Enterococci; E. faecalis MMX 1086, VanA VRE) | MIC (Staphylococcus aureus; [10]) | MIC (Staphylococcus aureus; [11]) | MIC (Staphylococcus aureus; VISA, S. aureus MMX 4660, VISA)
0.03 µg/mL: MIC (Streptococci; S. mitis (MGS) MMX 1205 ATCC 49456) | MIC (P. anaerobius) | MIC (P. micros) | MIC (Enterococci; E. faecalis MMX 4176) | MIC (Staphylococcus aureus; [6]) | MIC (Staphylococcus aureus; [9]) | MIC (Staphylococcus aureus; MRSA, S. aureus MMX 5985, MRSA)
0.025 µg/mL: MIC (Staphylococcus aureus; MSSA, S. aureus MMX 2490, MSSA)
0.015 µg/mL: MIC (C. perfringens) | MIC (Enterococci; E. faecium MMX 4204)
17 ×: RV40 activity as compared to Comparator (Staphylococcus aureus)
0.25 µg/mL: MIC (Streptococci; S. agalactiae MMX 4115, erm^R) | MIC (Streptococci; S. mitis (MGS) MMX 5798) | MIC (Streptococci; S. pyogenes MMX 946, ermR) | MIC (S. epidermidis (CoNS); [3]) | MIC (Staphylococcus aureus; VISA, S. aureus MMX 4658, VISA)
0.06 µg/mL: MIC (S. hominis (CoNS)) | MIC (Staphylococcus aureus; [8]) | MIC (Staphylococcus aureus; MRSA, S. aureus MMX 2010, MRSA) | MIC (Staphylococcus aureus; MRSA, S. aureus MMX 7903, MRSA) | MIC (Staphylococcus aureus; MSSA, S. aureus MMX 7907, MSSA) | MIC (Staphylococcus aureus; MSSA, S. aureus MMX 7908, MSSA)
2 µg/mL: MIC (Streptococci; S. dysgalactiae MMX 5123) | MIC (Streptococci; S. pyogenes MMX 404 ATCC 19615)
0.05 µg/mL: MIC (Streptococci; S. dysgalactiae MMX 5121)

CC(=O)NC[C@H]1CN(c2ccc(N3CCOCC3)c(F)c2)C(=O)O1 [Linezolid]
1 µg/mL: MIC (Clostridium difficile) | MIC (Streptococci; S. agalactiae MMX 4088) | MIC (Streptococci; S. agalactiae MMX 4115, erm^R) | MIC (Streptococci; S. dysgalactiae MMX 5121) | MIC (Streptococci; S. dysgalactiae MMX 5123) | MIC (Streptococci; S. dysgalactiae MMX 5124) | MIC (Streptococci; S. oralis (MGS) MMX 5821) | MIC (Streptococci; S. pneumoniae MMX 432, PRSP) | MIC (Streptococci; S. pneumoniae MMX 747) | MIC (Streptococci; [2]) | MIC (Streptococci; S. pyogenes MMX 946, ermR) | MIC (Streptococci; S. pyogenes MMX 8778) | MIC (S. hominis (CoNS)) | MIC (Staphylococcus aureus; [7])
4 µg/mL: MIC (Enterococci; E. faecalis MMX 4176) | MIC (Enterococci; E. faecium MMX 173, VanB VRE) | MIC (Staphylococcus aureus; [6])
2.5 µg/mL: MIC (Staphylococcus aureus; MRSA, S. aureus MMX 5985, MRSA) | MIC (Staphylococcus aureus; VISA, S. aureus MMX 4660, VISA)
3 µg/mL: MIC (Staphylococcus aureus; MRSA, S. aureus MMX 2010, MRSA) | MIC (Staphylococcus aureus; MRSA, S. aureus MMX 3982, MRSA) | MIC (Staphylococcus aureus; MSSA, S. aureus MMX 7907, MSSA)
2 µg/mL: MIC (Streptococci; S. pyogenes MMX 404 ATCC 19615) | MIC (S. epidermidis (CoNS); [3]) | MIC (Enterococci; [5]) | MIC (Enterococci; E. faecalis MMX 1086, VanA VRE) | MIC (Enterococci; E. faecium MMX 851, VanA VRE) | MIC (Enterococci; E. faecium MMX 4204) | MIC (Staphylococcus aureus; [9]) | MIC (Staphylococcus aureus; MRSA, S. aureus MMX 7900, MRSA) | MIC (Staphylococcus aureus; MRSA, S. aureus MMX 7901, MRSA) | MIC (Staphylococcus aureus; MRSA, S. aureus MMX 7902, MRSA) | MIC (Staphylococcus aureus; MSSA, S. aureus MMX 7908, MSSA)
1.25 µg/mL: MIC (Staphylococcus aureus; [10])
1.5 µg/mL: MIC (Staphylococcus aureus; [8]) | MIC (Staphylococcus aureus; MRSA, S. aureus MMX 5999, MRSA) | MIC (Staphylococcus aureus; MRSA, S. aureus MMX 7899, MRSA) | MIC (Staphylococcus aureus; MRSA, S. aureus MMX 7903, MRSA) | MIC (Staphylococcus aureus; MSSA, S. aureus MMX 2490, MSSA) | MIC (Staphylococcus aureus; S. aureus MMX 4665, hVISA) | MIC (Staphylococcus aureus; S. aureus MMX 5989, Mu3, hVISA) | MIC (Staphylococcus aureus; [11]) | MIC (Staphylococcus aureus; VISA, S. aureus MMX 4658, VISA)
214 ×: RV40 activity as compared to Comparator (Staphylococcus aureus; MRSA strains (Table 5), […])
0.5 µg/mL: MIC (S. haemolyticus (CoNS)) | MIC (Streptococci; [1]) | MIC (Streptococci; S. constellatus (AGS) MMX 5677) | MIC (Streptococci; S. mitis (MGS) MMX 5798) | MIC (S. epidermidis (CoNS); [4]) | MIC (S. lugdenensis (CoNS))
